Common to all, as to assay: DSF 100 kinase selectivity screen;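 also: compound tested at 20 µM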
What all share (type): binding

Assay [1] addresses T1, ~100 representative kinases (Homo sapiens, UniProt Q96GD4).
T1 construct: Recombinant protein kinase domains with a concentration of 2 μM
The following applies: Protein AURKB; average of three replicates. The method in brief: (§1)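 Each kinase domain, at 2 μM, is mixed with 20 μM test compound and SYPRO Orange in Hepes (20 mM, pH 7.5) with 500 mM NaCl. Temperature is then raised at 3°C/min and fluorescence-monitored unfolding yields the melting temperature change, ΔTm in degrees Celsius.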

Assay [2] concerns the target T2, ~100 representative kinases (Homo sapiens, UniProt O75385).
T2 construct: Recombinant protein kinase domains with a concentration of 2 μM
T2 sequence (O75385 1-1050): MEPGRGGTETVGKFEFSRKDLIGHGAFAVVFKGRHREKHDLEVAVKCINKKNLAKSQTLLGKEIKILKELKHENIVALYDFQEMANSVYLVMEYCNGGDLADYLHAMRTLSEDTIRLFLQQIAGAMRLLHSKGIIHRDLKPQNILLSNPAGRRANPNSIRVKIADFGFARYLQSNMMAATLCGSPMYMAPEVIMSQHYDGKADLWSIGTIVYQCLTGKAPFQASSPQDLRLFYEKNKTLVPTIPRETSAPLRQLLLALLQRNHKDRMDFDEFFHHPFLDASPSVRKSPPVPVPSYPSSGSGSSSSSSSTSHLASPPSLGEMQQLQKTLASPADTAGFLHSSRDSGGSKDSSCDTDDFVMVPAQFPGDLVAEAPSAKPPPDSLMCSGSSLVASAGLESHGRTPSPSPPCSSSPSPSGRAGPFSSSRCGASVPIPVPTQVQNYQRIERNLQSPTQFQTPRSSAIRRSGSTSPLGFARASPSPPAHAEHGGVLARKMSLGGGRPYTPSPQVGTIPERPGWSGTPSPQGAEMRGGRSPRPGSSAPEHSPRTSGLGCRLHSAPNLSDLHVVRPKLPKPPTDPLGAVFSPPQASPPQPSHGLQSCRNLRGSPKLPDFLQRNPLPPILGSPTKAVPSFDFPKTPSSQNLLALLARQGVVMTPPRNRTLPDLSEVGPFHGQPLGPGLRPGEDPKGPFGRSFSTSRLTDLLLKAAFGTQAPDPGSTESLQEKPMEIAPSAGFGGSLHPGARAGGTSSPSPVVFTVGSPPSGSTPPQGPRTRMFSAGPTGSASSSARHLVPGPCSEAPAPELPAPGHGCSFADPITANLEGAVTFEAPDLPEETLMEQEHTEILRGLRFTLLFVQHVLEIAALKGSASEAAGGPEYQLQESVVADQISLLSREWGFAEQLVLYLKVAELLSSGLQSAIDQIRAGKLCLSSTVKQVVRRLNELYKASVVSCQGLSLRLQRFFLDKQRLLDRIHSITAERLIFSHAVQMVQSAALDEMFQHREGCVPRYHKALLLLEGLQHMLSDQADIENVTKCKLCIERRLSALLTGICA
The following applies: Protein ULK1; DSF; average of three replicates. The method in brief: as §1

Assay [3] has as its target T3, ~100 representative kinases (Homo sapiens, UniProt Q16654).
T3 construct: Recombinant protein kinase domains with a concentration of 2 μM
The following applies: protein PDK4; average of three replicates. The method in brief: as §1

The target in assay [4] is T4, ~100 representative kinases (Homo sapiens, UniProt O15164).
T4 construct: Recombinant protein kinase domains with a concentration of 2 μM
T4 sequence (O15164 1-1050): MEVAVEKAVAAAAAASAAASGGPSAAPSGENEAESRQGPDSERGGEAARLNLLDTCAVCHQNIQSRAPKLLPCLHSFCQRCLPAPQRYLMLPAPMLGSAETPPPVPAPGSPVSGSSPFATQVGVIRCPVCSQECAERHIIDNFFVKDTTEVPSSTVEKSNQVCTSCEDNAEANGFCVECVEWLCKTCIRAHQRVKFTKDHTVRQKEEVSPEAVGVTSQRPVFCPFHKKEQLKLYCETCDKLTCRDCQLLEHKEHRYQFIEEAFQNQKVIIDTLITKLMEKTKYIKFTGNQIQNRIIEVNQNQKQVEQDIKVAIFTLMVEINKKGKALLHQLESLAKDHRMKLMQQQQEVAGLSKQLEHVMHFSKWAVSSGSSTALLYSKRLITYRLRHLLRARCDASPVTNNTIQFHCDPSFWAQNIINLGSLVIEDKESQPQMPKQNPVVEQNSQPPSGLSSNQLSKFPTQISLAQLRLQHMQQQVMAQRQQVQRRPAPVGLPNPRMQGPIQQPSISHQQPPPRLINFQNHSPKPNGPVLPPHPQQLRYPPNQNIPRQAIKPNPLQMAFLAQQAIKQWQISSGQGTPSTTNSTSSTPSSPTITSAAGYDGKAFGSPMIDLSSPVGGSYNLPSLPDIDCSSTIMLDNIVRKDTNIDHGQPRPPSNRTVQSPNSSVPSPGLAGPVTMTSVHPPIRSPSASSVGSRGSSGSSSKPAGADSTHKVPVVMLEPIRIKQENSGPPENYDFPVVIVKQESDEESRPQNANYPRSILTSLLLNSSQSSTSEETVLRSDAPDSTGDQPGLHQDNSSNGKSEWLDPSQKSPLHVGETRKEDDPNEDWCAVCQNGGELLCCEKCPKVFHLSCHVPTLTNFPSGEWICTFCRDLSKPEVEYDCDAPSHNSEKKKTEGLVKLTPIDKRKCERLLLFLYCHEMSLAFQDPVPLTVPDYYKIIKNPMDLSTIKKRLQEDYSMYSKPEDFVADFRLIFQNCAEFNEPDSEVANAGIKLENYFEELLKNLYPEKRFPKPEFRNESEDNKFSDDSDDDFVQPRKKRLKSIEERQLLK
The following applies: Protein TIF1; DSF; average of three replicates. The method in brief:
as §1

Assay [5] addresses T5, ~100 representative kinases (Homo sapiens, UniProt P22607).
T5 construct: Recombinant protein kinase domains with a concentration of 2 μM
Conditions: protein FGFR3; average of three replicates. In outline: as §1

For assay [6], the target named is T6, ~100 representative kinases (Homo sapiens, UniProt Q02750).
T6 construct: Recombinant protein kinase domains with a concentration of 2 μM
T6 sequence (Q02750 whole entry, the tested form may be a part): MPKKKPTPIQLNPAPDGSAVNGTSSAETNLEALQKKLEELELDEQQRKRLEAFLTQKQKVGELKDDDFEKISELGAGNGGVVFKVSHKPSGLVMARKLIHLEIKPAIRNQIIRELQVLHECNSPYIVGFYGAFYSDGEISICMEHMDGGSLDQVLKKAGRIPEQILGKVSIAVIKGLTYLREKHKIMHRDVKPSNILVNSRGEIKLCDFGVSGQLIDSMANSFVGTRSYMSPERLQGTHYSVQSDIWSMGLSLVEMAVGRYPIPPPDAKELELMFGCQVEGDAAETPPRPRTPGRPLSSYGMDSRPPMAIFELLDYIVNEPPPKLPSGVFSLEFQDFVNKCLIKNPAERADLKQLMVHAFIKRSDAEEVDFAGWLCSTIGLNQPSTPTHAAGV
Conditions: protein MAP2K1; average of three replicates. The method in brief:
as §1

T3 sequence (Q16654 whole entry, the tested form may be a part): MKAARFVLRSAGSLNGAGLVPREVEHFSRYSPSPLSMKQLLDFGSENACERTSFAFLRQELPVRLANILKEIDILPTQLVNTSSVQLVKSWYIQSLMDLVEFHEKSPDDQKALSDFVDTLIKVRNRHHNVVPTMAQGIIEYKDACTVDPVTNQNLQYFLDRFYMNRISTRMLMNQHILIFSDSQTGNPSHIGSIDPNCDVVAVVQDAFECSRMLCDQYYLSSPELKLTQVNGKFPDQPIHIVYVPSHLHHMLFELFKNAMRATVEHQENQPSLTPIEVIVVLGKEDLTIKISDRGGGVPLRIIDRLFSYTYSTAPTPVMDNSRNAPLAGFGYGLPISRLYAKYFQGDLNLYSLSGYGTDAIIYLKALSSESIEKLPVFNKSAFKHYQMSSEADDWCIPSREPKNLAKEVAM
T5 sequence (P22607 23-806): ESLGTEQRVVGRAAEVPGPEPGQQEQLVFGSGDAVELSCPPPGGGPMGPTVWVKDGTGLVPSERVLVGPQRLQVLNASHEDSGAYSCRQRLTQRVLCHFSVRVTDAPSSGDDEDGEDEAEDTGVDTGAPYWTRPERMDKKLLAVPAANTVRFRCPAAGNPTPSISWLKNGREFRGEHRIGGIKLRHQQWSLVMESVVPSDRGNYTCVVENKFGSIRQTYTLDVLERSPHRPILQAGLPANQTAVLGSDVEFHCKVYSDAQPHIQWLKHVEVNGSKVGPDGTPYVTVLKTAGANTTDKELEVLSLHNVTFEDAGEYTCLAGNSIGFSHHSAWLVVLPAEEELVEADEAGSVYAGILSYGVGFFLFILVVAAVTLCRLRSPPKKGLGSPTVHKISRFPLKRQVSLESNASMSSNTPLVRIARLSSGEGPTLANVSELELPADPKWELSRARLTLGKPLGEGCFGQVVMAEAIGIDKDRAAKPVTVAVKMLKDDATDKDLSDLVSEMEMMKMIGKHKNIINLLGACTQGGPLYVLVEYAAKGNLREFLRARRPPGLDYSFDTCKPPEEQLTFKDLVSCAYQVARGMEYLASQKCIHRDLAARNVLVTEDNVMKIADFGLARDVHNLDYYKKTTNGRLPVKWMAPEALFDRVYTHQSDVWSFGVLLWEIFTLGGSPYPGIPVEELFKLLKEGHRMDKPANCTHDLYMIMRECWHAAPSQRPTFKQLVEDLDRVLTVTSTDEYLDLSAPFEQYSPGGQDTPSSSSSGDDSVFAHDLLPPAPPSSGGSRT
T1 sequence (Q96GD4 whole entry, the tested form may be a part): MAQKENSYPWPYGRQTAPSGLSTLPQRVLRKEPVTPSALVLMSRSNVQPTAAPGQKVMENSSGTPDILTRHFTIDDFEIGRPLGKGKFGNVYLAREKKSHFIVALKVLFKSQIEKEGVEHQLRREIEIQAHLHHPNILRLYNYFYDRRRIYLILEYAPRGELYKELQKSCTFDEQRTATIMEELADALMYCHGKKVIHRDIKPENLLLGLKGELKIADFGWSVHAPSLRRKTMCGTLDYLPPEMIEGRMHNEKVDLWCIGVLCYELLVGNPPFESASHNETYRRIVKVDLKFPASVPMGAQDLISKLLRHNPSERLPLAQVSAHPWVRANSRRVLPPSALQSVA

For the molecule `Cc1ccc(C(=O)Nc2ccc(CN3CCN(C)CC3)c(C(F)(F)F)c2)cc1C#Cc1c[nH]c2ncnc(N3CCOCC3)c12` [Compound 1], the dTm in assay [1] is given as 1.01 K; in assay [2], 6.89 K; in assay [3], -0.54 K; in assay [4], 0.45 K; in assay [5] it was 4.20 K.

In the case of `O=C(Nc1cccc(-c2c[nH]c3ncnc(N4CCOCC4)c23)c1)C1(C(=O)Nc2cc(Br)c(F)cc2F)CC1` [Compound 25], the dTm in assay [1] was -2.86 K; in assay [2], 7.16 K; in assay [4] it was 3.01 K; in assay [6], 2.16 K; in assay [5], 2.90 K.

For `O=C(Nc1cccc(-c2c[nH]c3ncnc(N4CCOCC4)c23)c1)C1(C(=O)Nc2ccc(F)c(Br)c2F)CC1` [Compound 26], the dTm amounted to 0.97 K in assay [1]; 8.48 K in assay [2]; 2.87 K in assay [4]; 2.67 K in assay [6]; 3.36 K in assay [5].

`O=C(Nc1cc(F)cc(Br)c1)C1(C(=O)Nc2cccc(-c3c[nH]c4ncnc(N5CCOCC5)c34)c2)CC1` [Compound 27]: the dTm in assay [1] is reported as 2.17 K; in assay [2], 6.71 K; in assay [4] it was 4.20 K; in assay [6], 2.13 K; in assay [5] it was 2.07 K.

With `CCNc1nc(Nc2cc(F)c(C(=O)N3CCOCC3)cc2OC)ncc1C(F)(F)F` [GNE-7915], the dTm in assay [1] is -1.42 K; in assay [2], 1.06 K; in assay [3] it was -0.0168 K; in assay [4], -0.22 K; in assay [6] it was 0.0455 K; in assay [5], 1.40 K.

On to `Cc1ccc(C(=O)Nc2ccc(CN3CCN(C)CC3)c(C(F)(F)F)c2)cc1C#Cc1cnc2[nH]ncc2c1` [GZD-824, reference compound], for which the dTm in assay [1] is given as 1.02 K; in assay [2] it was 6.60 K; in assay [3], -0.28 K; in assay [4], 0.34 K; in assay [6], 0.63 K; in assay [5] it was 14.11 K.

For the molecule `C[C@@H]1CN(c2cc(-c3n[nH]c4ccc(OC5(C)CC5)cc34)ncn2)C[C@H](C)O1` [MLi2], the dTm was -0.83 K in assay [1]; 0.01 K in assay [2]; -0.0742 K in assay [3]; 0.28 K in assay [4]; -0.0332 K in assay [6]; 0.31 K in assay [5].

Take `Cn1cc(-c2c[nH]c3ncnc(N4CCOCC4)c23)cc1C#N` [PFE-360]: the dTm in assay [1] is listed as 2.36 K; in assay [2], 1.48 K; in assay [3], -0.55 K; in assay [4], 0.08 K; in assay [6] it was 0.65 K; in assay [5], 2.13 K.

As to `Cc1ccc(C(=O)Nc2ccc(CN3CCN(C)CC3)c(C(F)(F)F)c2)cc1C#Cc1cnc2cccnn12` [Ponatinib, reference compound], the dTm in assay [1] was 0.49 K; in assay [3], -0.09 K; in assay [4], 0.0214 K; in assay [5] it was 14.03 K.

The values are drawn from publication PMC12136037, “Type II kinase inhibitors that target Parkinson’s disease–associated LRRK2” (Science Advances, 2025).
